From ChEMBL document CHEMBL1201862, “PubChem BioAssay data set” (2004)
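Growth conditions: 96-well plates. Treatment: test compound, 48 hours, 5 concentrations. Analysis: linear interpolation between bracketing concentrations; unreached endpoints set to highest concentration. The concentration for 50% growth inhibition is given as GI50.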 Active and inactive are the calls of the source. Rule as the data show it: active = GI50 up to about 1.1 µM and inactive = higher. Non-standard residues stand in square brackets, D forms with d. Residues, ends and D or L forms follow the SMILES beside them. *: point of attachment. Benzoyl(4-OMe) = COc1ccc(C(=O)*)cc1; 2Thi = N[CH](Cc1cccs1)C(=O)O

What was measured:
Assay in all cases: growth of human tumour cells (NCI), 48 h
UACC-257 = system: UACC-257
SF-295 = system: SF-295
SK-MEL-5 = system: SK-MEL-5
NCI-H460 = system: NCI-H460
KM12 = system: KM12
SR = system: SR
A498 = system: A498
SNB-75 = system: SNB-75
DU-145 = system: DU-145
HCC 2998 = system: HCC 2998
ACHN = system: ACHN
OVCAR-3 = system: OVCAR-3
TK-10 = system: TK-10
RXF 393 = system: RXF 393
SN12C = system: SN12C
MDA-MB-435 = system: MDA-MB-435
NCI-H226 = system: NCI-H226
OVCAR-8 = system: OVCAR-8
MDA-N = system: MDA-N
LOX IMVI = system: LOX IMVI

SMILES	GI50 (UACC-257)	GI50 (SF-295)	GI50 (SK-MEL-5)	GI50 (NCI-H460)	GI50 (KM12)	GI50 (SR)	GI50 (A498)	GI50 (SNB-75)	GI50 (DU-145)	GI50 (HCC 2998)	GI50 (ACHN)	GI50 (OVCAR-3)	GI50 (TK-10)	GI50 (RXF 393)	GI50 (SN12C)	GI50 (MDA-MB-435)	GI50 (NCI-H226)	GI50 (OVCAR-8)	GI50 (MDA-N)	GI50 (LOX IMVI)
COc1cc2c(=O)cnoc2cc1O	> 100 µM (inactive)	> 100 µM (inactive)	> 100 µM (inactive)	> 100 µM (inactive)	> 100 µM (inactive)	> 100 µM (inactive)	39.5 µM (inactive)	> 100 µM (inactive)	> 100 µM (inactive)	> 100 µM (inactive)	> 100 µM (inactive)	> 100 µM (inactive)	> 100 µM (inactive)	> 100 µM (inactive)	> 100 µM (inactive)	> 100 µM (inactive)	> 100 µM (inactive)	> 100 µM (inactive)	> 100 µM (inactive)	
CC(=O)O[C@H]1C(=O)[C@@]2(C)[C@H]([C@H](OC(=O)c3ccccc3)[C@]3(O)C[C@H](OC(=O)[C@H](OC(=O)OCCC(O)CO)[C@@H](NC(=O)c4ccccc4)c4ccccc4)C(C)=C1C3(C)C)[C@]1(OC(C)=O)CO[C@@H]1C[C@@H]2O (stereo not given in full)	< 0.01 µM (active)	0.0192 µM (active)	< 0.01 µM (active)	< 0.01 µM (active)	< 0.01 µM (active)	< 0.01 µM (active)	0.141 µM (active)	< 0.0114 µM (active)	< 0.01 µM (active)	< 0.01 µM (active)	1.09 µM (active)	< 0.01 µM (active)	0.998 µM (active)	< 0.037 µM (active)	< 0.01 µM (active)	< 0.01 µM (active)	< 0.01 µM (active)	< 0.0221 µM (active)	< 0.01 µM (active)	< 0.01 µM (active)
NS(=O)(=O)c1ccc(Nc2c3ccccc3nc3c(C(=O)NC(CO)(CO)CO)cccc23)cc1	0.181 µM (active)	0.294 µM (active)	0.107 µM (active)	0.0668 µM (active)	0.158 µM (active)	0.334 µM (active)	0.224 µM (active)		0.194 µM (active)	0.212 µM (active)	0.19 µM (active)	0.15 µM (active)	0.164 µM (active)	0.185 µM (active)	0.199 µM (active)	0.212 µM (active)	0.136 µM (active)	0.181 µM (active)	0.272 µM (active)	0.132 µM (active)
CCC(C)C(NC(=O)C(Cc1cccs1)NC(=O)C(CC(C)C)NC(=O)C(CC(C)C)NC(=O)C(CCCCN)NC(=O)C(CCCNC(=N)N)NC(=O)c1ccc(OC)cc1)C(=O)NC(CC(C)C)C(N)=O (stereo not given) ({Benzoyl(4-OMe)}-RKLL[2Thi]IL-NH2; configuration not given here)	> 100 µM (inactive)	> 100 µM (inactive)	> 100 µM (inactive)	> 100 µM (inactive)	> 100 µM (inactive)	> 100 µM (inactive)	> 100 µM (inactive)	> 100 µM (inactive)	> 100 µM (inactive)	> 100 µM (inactive)	> 100 µM (inactive)	> 100 µM (inactive)	> 100 µM (inactive)	> 100 µM (inactive)	> 100 µM (inactive)	> 100 µM (inactive)	> 100 µM (inactive)	> 100 µM (inactive)	> 100 µM (inactive)	> 100 µM (inactive)
COc1cc(COC(=O)N2CC=CC2C(=O)O)c([N+](=O)[O-])cc1OC (stereo not given)	> 100 µM (inactive)	> 100 µM (inactive)	> 100 µM (inactive)	> 100 µM (inactive)	> 100 µM (inactive)	> 100 µM (inactive)	> 100 µM (inactive)	> 100 µM (inactive)	> 100 µM (inactive)	> 100 µM (inactive)	> 100 µM (inactive)	> 100 µM (inactive)	> 100 µM (inactive)	> 100 µM (inactive)	> 100 µM (inactive)	> 100 µM (inactive)	> 100 µM (inactive)	> 100 µM (inactive)	> 100 µM (inactive)	
O=C(NCCCl)NCc1ccccc1	> 100 µM (inactive)	> 100 µM (inactive)	> 100 µM (inactive)	52.5 µM (inactive)	> 100 µM (inactive)	> 100 µM (inactive)	> 100 µM (inactive)	> 100 µM (inactive)	> 100 µM (inactive)	> 100 µM (inactive)	> 100 µM (inactive)	> 100 µM (inactive)		> 100 µM (inactive)	> 100 µM (inactive)	> 100 µM (inactive)	> 100 µM (inactive)	> 100 µM (inactive)	> 100 µM (inactive)	> 100 µM (inactive)
C#CC1=CC(=O)C(OC)=CC1=O	41.6 µM (inactive)	29.4 µM (inactive)	16.2 µM (inactive)	34.5 µM (inactive)	58.7 µM (inactive)	6.7 µM (inactive)	> 100 µM (inactive)	< 0.01 µM (active)	17.8 µM (inactive)	30.1 µM (inactive)	3.44 µM (inactive)	33.5 µM (inactive)	48.6 µM (inactive)	15.2 µM (inactive)	17.6 µM (inactive)	18.1 µM (inactive)	19.3 µM (inactive)		19.1 µM (inactive)	17.6 µM (inactive)
